These results are taken from US8124641B2, “Aminotetrahydroindazoloacetic acids” (Hoffmann-La Roche Inc., priority 2008, dated 2012).

Structures are written as SMILES.

The target of this test is T1, human CRTH2 (Homo sapiens, UniProt Q9Y5Y4).
T1 construct: expressed in transfected cells
T1 sequence (Q9Y5Y4 1-395): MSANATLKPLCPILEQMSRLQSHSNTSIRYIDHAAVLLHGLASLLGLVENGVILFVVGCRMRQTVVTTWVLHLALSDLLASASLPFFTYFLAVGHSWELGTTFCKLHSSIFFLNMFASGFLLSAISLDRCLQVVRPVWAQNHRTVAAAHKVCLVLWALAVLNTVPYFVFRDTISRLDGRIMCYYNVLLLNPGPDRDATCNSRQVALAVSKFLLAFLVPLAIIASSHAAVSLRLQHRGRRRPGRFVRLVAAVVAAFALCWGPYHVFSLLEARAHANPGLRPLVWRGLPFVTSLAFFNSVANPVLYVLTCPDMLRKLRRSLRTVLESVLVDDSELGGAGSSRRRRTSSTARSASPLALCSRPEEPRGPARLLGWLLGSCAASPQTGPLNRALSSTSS
The experiment in a line: Human CRTH2 Receptor Binding Assay (whole cell, [3H]ramatroban competition). To be noted: CHO-K1 cells stably expressing human CRTH2 and G-alpha16; 20 nM [3H]ramatroban; 1 hour, room temperature. In a few lines:
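Whole CHO-K1 cells stably expressing human CRTH2 and G-alpha16 were incubated with 20 nM [3H]ramatroban and compound for 1 h at room temperature in PBS with 10 mM MgCl2 and 0.06% BSA, then filtered and counted. Non-specific binding was defined with 10 μM 15(R)-15-methyl PGD2, and IC50 was fitted by 4-parameter logistic from 7 concentrations.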

By IC50 is commonly meant the concentration that inhibits the measured activity by half. Compound `CS(=O)(=O)Nc1cccc(S(=O)(=O)NC2CCCc3c2cnn3CC(=O)O)c1` (stereo not drawn) [Example 23-1a, [4-(3-Methanesulfonylamino-benzenesulfonylamino)-4,5,6,7-tetrahydro-indazol-1-yl]-acetic acid] had an IC50 of 39.5 nM.

`CN([C@@H]1CCCc2c1cnn2CC(=O)O)S(=O)(=O)c1cc(N2CCCC2)cc(C(F)(F)F)c1` [Example 24-1a, {(R)-4-[Methyl-(3-pyrrolidin-1-yl-5-trifluoromethyl-benzenesulfonyl)-amino]-4,5,6,7-tetrahydro-indazol-1-yl}-acetic acid] showed an IC50 of 38.1 nM.

Compound `CC(C)N(C)c1cc(C(F)(F)F)cc(S(=O)(=O)N(C)[C@@H]2CCCc3c2cnn3CC(=O)O)c1` [Example 24-2a, ((R)-4-{[3-(Isopropyl-methyl-amino)-5-trifluoromethyl-benzenesulfonyl]-methyl-amino}-4,5,6,7-tetrahydro-indazol-1-yl)-acetic acid] showed an IC50 of 45.7 nM.

With `CN(C)c1cc(C(F)(F)F)cc(S(=O)(=O)N(C)[C@@H]2CCCc3c2cnn3CC(=O)O)c1` [Example 24-3a, {(R)-4-[(3-Dimethylamino-5-trifluoromethyl-benzenesulfonyl)-methyl-amino]-4,5,6,7-tetrahydro-indazol-1-yl}-acetic acid], the IC50 stood at 62.2 nM.

`CCN(CC)c1cc(C(F)(F)F)cc(S(=O)(=O)N(C)[C@@H]2CCCc3c2cnn3CC(=O)O)c1` [Example 24-4a, {(R)-4-[(3-Diethylamino-5-trifluoromethyl-benzenesulfonyl)-methyl-amino]-4,5,6,7-tetrahydro-indazol-1-yl}-acetic acid]: the IC50 is 146 nM.

Regarding `O=C(O)Cn1ncc2c1CCCC2NS(=O)(=O)c1cc(C2CC2)cc(C(F)(F)F)c1` (stereo not drawn) [Example 25-1a, [4-(3-Cyclopropyl-5-trifluoromethyl-benzenesulfonylamino)-4,5,6,7-tetrahydro-indazol-1-yl]-acetic acid], the half-inhibitory concentration (IC50) turned out to be 22 nM.

Take `Cc1cc(C(F)(F)F)cc(S(=O)(=O)NC2CCCc3c2cnn3CC(=O)O)c1` (stereo not drawn) [Example 25-2a, [4-(3-Methyl-5-trifluoromethyl-benzenesulfonylamino)-4,5,6,7-tetrahydro-indazol-1-yl]-acetic acid]: the IC50 is 142 nM.

For the compound `C=C(C)c1cc(C(F)(F)F)cc(S(=O)(=O)NC2CCCc3c2cnn3CC(=O)O)c1` (stereo not drawn) [Example 25-3a, [4-(3-Isopropenyl-5-trifluoromethyl-benzenesulfonylamino)-4,5,6,7-tetrahydro-indazol-1-yl]-acetic acid], the IC50 was 40.4 nM.

Compound `CN([C@@H]1CCCc2c1cnn2CC(=O)O)S(=O)(=O)c1cc(C2CC2)cc(C(F)(F)F)c1` [Example 26-1a, {(R)-4-[(3-Cyclopropyl-5-trifluoromethyl-benzenesulfonyl)-methyl-amino]-4,5,6,7-tetrahydro-indazol-1-yl}-acetic acid] had an IC50 of 16.3 nM.
